Source: paper PMC8472965, “BmK86-P1, a New Degradation Peptide with Desirable Thermostability and Kv1.2 Channel-Specific Activity from Traditional Chinese Scorpion Medicinal Material” (Toxins, 2021)
Positions of bridges follow the written chain, without caps; N, C: chain ends. Residues, ends and D or L forms follow the SMILES beside them.

What was measured:
hKv1.2-Q357H = biological target: T1, hKv1.2-Q357H (Homo sapiens, UniProt P16389, Q357H); experiment: Whole-cell patch clamp, hKv1.2 channel mutant Q357H; format: cell-based; settings: 100 nM peptide, HEK293T, mean ± S.E., n ≥ 3, SEM
T1 construct: expressed in transfected cells; host or cells: HEK293T
Procedure: (§1) To determine the functional sites of the hKv1.2 channel responsible for the selectivity of BmK86-P1, six hKv1.2 mutants were obtained based on sequence differences between the pore regions of the hKv1.2 and hKv1.1 channels (Figure 4A). Then, the activities of 100 nM BmK86-P1 on these six mutant channels were tested. […] The other three mutant channels (hKv1.2-D352E, hKv1.2-R354A and hKv1.2-P359S) still kept similar sensitivities toward BmK86-P1 compared with the wild-type hKv1.2 channel (Figure 4H,I,K,N).
(§2) All potassium channel expression vectors were given by others or constructed by ourselves. HEK293T cells were cultured in Dulbecco’s modified Eagle medium (Gibco, Pittsburgh, PA, USA) with 10% fetal bovine serum and penicillin/streptomycin (100 units/mL) in a 5% CO2 incubator at 37 °C. Potassium channel expression vectors and pEGFP-N1 were co-transfected into HEK293T cells using TurboFect in vitro Transfection Reagent (Thermo Scientific, Waltham, MA, USA) according to the manufacturer’s instructions. The potassium currents were recorded after transfection for 1 to 3 days.
(§3) The channel currents were measured and recorded by whole-cell patch clamp technology according to previously published references. […] The channel currents were recorded at room temperature (~25 °C) using an EPC 10 patch clamp amplifier. […]

hKv1.2-R354A = biological target: T2, hKv1.2-R354A (Homo sapiens, UniProt P16389, R354A); experiment: Whole-cell patch clamp, hKv1.2 channel mutant R354A; format: cell-based; settings: 100 nM peptide, HEK293T, mean ± S.E., n ≥ 3, SEM
T2 construct: expressed in transfected cells; host or cells: HEK293T
Procedure: as §1, §2, §3

hKv1.1 channel = biological target: T3, hKv1.1 channel (Homo sapiens, UniProt Q09470); experiment: Whole-cell patch clamp, hKv1.1 channel overexpressed in HEK293T cells; format: cell-based; settings: mean ± S.E., n ≥ 3, SEM
T3 construct: expressed in transfected cells; host or cells: HEK293T
Procedure: (§4) To investigate the electrophysiological activities of BmK86-P1, the whole-cell patch clamp technique was applied to test the effects of BmK86-P1 on multiple potassium channels. The hKv1.1, hKv1.2, hKv1.3, hKv1.6, hKv3.2, mKv4.1, rKv4.2, rKv4.3 and hERG channels were overexpressed in HEK293T cells, then the inhibitory effects of BmK86-P1 at 1 μM on these potassium channels were measured. […] To further investigate the affinity of BmK86-P1 inhibiting the hKv1.2 channel, a dose-dependent study was performed by examining the inhibitory effects of different concentrations of BmK86-P1.
(§5) All potassium channel expression vectors were given by others or constructed by ourselves. HEK293T cells were cultured in Dulbecco’s modified Eagle medium (Gibco, Pittsburgh, PA, USA) with 10% fetal bovine serum and penicillin/streptomycin (100 units/mL) in a 5% CO2 incubator at 37 °C. […] The potassium currents were recorded after transfection for 1 to 3 days.
as §3
(§6) The ClampFit (Molecular Devices, Sunnyvale, CA, USA) and SigmaPlot software ([…], Chicago, IL, USA) were used to analyze the recorded data. […]

hKv3.2 channel = biological target: T4, hKv3.2 channel (Homo sapiens, UniProt Q96PR1); experiment: Whole-cell patch clamp, hKv3.2 channel overexpressed in HEK293T cells; format: cell-based; settings: 1 μM peptide, mean ± S.E., n ≥ 3, SEM
T4 construct: expressed in transfected cells; host or cells: HEK293T
T4 sequence (Q96PR1 1-638): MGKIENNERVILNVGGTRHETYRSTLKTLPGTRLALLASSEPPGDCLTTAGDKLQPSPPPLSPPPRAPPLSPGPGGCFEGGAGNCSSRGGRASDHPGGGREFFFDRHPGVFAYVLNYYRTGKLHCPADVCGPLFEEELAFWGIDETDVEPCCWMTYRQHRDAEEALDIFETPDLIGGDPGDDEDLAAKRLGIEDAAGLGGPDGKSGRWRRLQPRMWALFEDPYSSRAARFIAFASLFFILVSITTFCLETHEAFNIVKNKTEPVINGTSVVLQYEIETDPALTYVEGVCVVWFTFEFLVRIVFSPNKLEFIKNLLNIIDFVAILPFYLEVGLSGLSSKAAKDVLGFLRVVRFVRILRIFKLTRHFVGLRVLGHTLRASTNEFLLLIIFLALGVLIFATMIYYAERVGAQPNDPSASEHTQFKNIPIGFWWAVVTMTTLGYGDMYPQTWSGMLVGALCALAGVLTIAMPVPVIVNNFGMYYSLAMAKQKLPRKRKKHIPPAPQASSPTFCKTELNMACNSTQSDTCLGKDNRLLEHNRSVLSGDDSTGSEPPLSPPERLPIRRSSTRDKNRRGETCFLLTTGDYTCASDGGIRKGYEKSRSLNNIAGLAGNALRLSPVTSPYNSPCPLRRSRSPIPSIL
Procedure: as §4, §5, §3, §6

Kv1.3 channel = settings: read-out: IC50, inhibition of the current of Kv1.3 channel; cited from earlier work
Source text: The BmK86 toxin gene was first discovered from the venom gland cDNA library of Mesobuthus martensii Karsch. It encodes a signal peptide with 22 amino acid residues and a mature toxin with 35 residues (Figure 6A). The stretch of six amino acids in the N-terminus of BmK86 was thought to be a signal peptide rather than the N-terminal portion of the mature peptide. […] BmK86 could inhibit the c ...

[1] = biological target: T5, hKv1.2-M1 chimeric channel (Homo sapiens, UniProt P16389, D352E/P359S/Q357H/R354A/T383V/V381Y); experiment: Whole-cell patch clamp, chimeric channel hKv1.2-M1 (S5-S6 linker of hKv1.2 replaced by that of hKv1.1); format: cell-based; settings: 100 nM peptide, HEK293T, mean ± S.E., n ≥ 3, SEM
T5 construct: expressed in transfected cells; host or cells: HEK293T
Procedure: The binding interface of potassium channels for scorpion toxins is the pore region, which includes the turret and filter regions. We first investigated whether BmK86-P1 peptide binds to the pore region of the hKv1.2 channel.
as §2
The channel currents were measured and recorded by whole-cell patch clamp technology according to previously published references. The internal patch pipette solution and the bath solution were prepared as previously described. All the test peptides were dissolved into bath solution supplemented with 0.01% BSA. An MPS-2 multichannel microperfusion system (INBIO Inc., Wuhan, China) was applied to change the external recording bath solution. […] The channel currents were recorded at room temperature (~25 °C) using an EPC 10 patch clamp amplifier. […]

hKv1.2-V381Y = biological target: T6, hKv1.2-V381Y (Homo sapiens, UniProt P16389, V381Y); experiment: Whole-cell patch clamp, hKv1.2 channel mutant V381Y; format: cell-based; settings: 100 nM peptide, HEK293T, mean ± S.E., n ≥ 3, SEM
T6 construct: expressed in transfected cells; host or cells: HEK293T
Procedure: as §1, §2, §3

hKv1.6 channel = biological target: T7, hKv1.6 channel (Homo sapiens, UniProt P17658); experiment: Whole-cell patch clamp, hKv1.6 channel overexpressed in HEK293T cells; format: cell-based; settings: 1 μM peptide, mean ± S.E., n ≥ 3, SEM
T7 construct: expressed in transfected cells; host or cells: HEK293T
Procedure: as §4, §5, §3, §6

hERG channel = biological target: T8, hERG channel (Homo sapiens, UniProt Q12809); format: cell-based; settings: 1 μM peptide; whole-cell patch clamp, HEK293T; mean ± S.E., n ≥ 3; SEM
T8 construct: expressed in transfected cells; host or cells: HEK293T
Procedure: as §4, §5, §3, §6

hKv1.3 channel = biological target: T9, hKv1.3 channel (Homo sapiens, UniProt P22001); experiment: Whole-cell patch clamp, hKv1.3 channel overexpressed in HEK293T cells; format: cell-based; settings: 1 μM peptide, room temperature (~25 °C), mean ± S.E., n ≥ 3, SEM
T9 construct: expressed in transfected cells; host or cells: HEK293T
Procedure: as §4, §5, §3, §6

rKv4.3 channel = experiment: Whole-cell patch clamp, rKv4.3 channel overexpressed in HEK293T cells; format: cell-based, rat; settings: 1 μM peptide, mean ± S.E., n ≥ 3, SEM
Procedure: as §4, §5, §3, §6

T3 sequence (Q09470 whole entry): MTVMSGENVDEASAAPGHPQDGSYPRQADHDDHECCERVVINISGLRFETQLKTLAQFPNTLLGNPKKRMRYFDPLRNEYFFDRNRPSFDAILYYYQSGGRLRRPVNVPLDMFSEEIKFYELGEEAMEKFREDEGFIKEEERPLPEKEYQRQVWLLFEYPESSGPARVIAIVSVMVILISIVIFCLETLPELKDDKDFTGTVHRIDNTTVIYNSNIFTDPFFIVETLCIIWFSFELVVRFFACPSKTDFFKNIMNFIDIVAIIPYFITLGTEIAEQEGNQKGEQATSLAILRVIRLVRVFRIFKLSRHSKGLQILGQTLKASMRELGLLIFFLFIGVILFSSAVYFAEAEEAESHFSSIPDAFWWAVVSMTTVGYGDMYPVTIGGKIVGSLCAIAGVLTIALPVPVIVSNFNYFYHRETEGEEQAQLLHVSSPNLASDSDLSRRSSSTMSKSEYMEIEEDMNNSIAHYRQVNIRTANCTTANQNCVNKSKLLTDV
T8 sequence (Q12809 whole entry): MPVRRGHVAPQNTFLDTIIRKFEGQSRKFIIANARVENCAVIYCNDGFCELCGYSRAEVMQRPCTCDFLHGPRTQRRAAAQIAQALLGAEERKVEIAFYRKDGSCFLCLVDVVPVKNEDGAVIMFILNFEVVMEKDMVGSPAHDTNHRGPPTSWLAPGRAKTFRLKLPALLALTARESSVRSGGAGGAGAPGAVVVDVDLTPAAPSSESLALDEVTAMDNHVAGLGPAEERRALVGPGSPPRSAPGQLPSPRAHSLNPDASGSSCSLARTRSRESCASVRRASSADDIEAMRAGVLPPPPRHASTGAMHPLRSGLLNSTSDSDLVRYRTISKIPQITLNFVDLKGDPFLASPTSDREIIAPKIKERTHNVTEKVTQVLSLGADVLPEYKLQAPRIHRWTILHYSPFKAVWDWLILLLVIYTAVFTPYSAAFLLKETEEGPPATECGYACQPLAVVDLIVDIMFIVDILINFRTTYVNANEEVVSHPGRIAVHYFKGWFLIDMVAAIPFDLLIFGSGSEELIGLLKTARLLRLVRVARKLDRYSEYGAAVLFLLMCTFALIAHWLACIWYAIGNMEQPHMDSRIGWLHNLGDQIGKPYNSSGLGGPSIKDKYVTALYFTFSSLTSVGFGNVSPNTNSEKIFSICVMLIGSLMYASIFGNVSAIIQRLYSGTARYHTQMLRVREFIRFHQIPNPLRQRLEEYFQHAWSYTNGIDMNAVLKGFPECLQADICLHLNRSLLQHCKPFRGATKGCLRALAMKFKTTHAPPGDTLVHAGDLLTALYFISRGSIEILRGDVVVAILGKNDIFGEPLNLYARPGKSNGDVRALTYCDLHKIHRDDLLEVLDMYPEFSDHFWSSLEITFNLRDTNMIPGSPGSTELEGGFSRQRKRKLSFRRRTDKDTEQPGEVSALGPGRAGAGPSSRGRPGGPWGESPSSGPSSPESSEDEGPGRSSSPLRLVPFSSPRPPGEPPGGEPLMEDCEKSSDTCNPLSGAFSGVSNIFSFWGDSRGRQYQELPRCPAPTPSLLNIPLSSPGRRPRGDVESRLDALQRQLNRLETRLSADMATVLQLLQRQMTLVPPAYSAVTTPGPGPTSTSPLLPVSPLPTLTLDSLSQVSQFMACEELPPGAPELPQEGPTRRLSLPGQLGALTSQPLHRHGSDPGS
T9 sequence (P22001 whole entry): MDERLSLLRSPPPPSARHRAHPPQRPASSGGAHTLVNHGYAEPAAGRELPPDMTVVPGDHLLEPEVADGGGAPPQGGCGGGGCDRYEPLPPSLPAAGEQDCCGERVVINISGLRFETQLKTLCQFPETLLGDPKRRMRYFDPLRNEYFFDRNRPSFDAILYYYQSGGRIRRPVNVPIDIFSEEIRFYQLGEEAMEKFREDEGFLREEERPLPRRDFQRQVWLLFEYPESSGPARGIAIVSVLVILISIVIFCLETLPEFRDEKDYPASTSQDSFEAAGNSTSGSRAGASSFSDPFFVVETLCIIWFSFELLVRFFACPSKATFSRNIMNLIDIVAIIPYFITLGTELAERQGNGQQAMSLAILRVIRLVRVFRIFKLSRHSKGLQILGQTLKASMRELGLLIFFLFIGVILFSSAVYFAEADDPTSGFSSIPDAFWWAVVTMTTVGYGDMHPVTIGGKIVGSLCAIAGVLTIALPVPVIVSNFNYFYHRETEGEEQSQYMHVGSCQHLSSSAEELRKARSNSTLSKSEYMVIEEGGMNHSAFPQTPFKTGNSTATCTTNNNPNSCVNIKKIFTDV
T1 sequence (P16389 whole entry Q357H): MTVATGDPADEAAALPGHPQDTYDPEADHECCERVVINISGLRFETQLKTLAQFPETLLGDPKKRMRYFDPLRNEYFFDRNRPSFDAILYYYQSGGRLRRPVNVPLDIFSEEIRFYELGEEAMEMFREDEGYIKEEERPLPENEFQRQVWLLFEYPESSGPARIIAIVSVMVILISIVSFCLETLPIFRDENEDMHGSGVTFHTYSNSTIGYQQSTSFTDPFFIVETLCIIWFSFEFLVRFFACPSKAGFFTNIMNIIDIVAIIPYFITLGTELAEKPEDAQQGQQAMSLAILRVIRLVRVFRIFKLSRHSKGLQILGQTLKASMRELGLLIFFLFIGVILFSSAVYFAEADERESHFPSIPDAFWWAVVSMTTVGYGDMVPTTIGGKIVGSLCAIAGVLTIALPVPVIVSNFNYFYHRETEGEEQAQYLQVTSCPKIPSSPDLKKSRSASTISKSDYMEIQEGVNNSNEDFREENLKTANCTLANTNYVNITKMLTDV
T2 sequence (P16389 whole entry R354A): as the sequence (P16389 whole entry Q357H) above, with R354A, H357Q counted along it
T5 sequence (P16389 whole entry D352E/R354A/Q357H/P359S/V381Y/T383V): as the sequence (P16389 whole entry Q357H) above, with D352E, R354A, P359S, V381Y, T383V counted along it
T7 sequence (P17658 whole entry): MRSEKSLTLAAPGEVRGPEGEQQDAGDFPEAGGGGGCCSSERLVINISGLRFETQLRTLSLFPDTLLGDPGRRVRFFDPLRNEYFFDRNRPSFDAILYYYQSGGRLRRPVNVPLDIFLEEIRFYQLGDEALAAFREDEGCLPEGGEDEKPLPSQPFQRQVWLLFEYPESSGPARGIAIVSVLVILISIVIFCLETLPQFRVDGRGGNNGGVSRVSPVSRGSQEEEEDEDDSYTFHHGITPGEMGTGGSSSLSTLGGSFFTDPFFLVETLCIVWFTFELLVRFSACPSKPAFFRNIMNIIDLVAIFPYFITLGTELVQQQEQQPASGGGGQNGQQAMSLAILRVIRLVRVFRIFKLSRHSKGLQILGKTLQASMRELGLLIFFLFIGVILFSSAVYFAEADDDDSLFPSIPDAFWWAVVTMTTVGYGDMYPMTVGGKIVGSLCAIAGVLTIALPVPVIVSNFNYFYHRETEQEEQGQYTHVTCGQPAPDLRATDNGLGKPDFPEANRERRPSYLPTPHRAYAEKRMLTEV
T6 sequence (P16389 whole entry V381Y): as the sequence (P16389 whole entry Q357H) above, with H357Q, V381Y counted along it

## CC[C@H](C)[C@@H]1NC(=O)[C@@H]2CSSC[C@H](NC(=O)[C@H](C)N)C(=O)N[C@@H](CO)C(=O)N[C@@H](CCCCN)C(=O)N3CCC[C@H]3C(=O)N[C@H]3CSSC[C@H](NC(=O)[C@H](CCCNC(=N)N)NC(=O)CNC(=O)[C@H](CC(N)=O)NC1=O)C(=O)N[C@@H](Cc1c[nH]cn1)C(=O)N[C@H](C(=O)N[C@@H](Cc1ccc(O)cc1)C(=O)N[C@@H](Cc1ccc(O)cc1)C(=O)O)CSSC[C@H](NC(=O)[C@H](Cc1ccc(O)cc1)NC(=O)[C@H](CCCCN)NC(=O)[C@H](CCCNC(=N)N)NC3=O)C(=O)N[C@@H]([C@@H](C)CC)C(=O)N[C@@H](CC(=O)O)C(=O)N[C@@H](CCCCN)C(=O)NCC(=O)N[C@@H](C)C(=O)N[C@@H](CCCNC(=N)N)C(=O)N[C@@H](CC(N)=O)C(=O)NCC(=O)N[C@@H](CCCCN)C(=O)N2 [BmK86-P1] (H-ACSKPCRKYCIDKGARNGKCINGRCHCYY-OH; disulfide 2-20, 6-25, 10-27 (inferred); N-terminus and C-terminus assumed)
hKv1.2-Q357H
  inhibition of hKv1.2-Q357H channel currents: 37.3 ± 1.5%
hKv1.2-R354A
  inhibition of hKv1.2-R354A channel currents: 73.3 ± 1.3%
hKv1.1 channel; 100 nM peptide
  inhibition of hKv1.1 channel currents: 0.7 ± 0.1%
hKv1.1 channel; 1 μM peptide, room temperature (~25 °C)
  inhibition of hKv1.1 channel currents: 4.4 ± 2.6%
hKv3.2 channel
  inhibition of hKv3.2 channel currents: 3.8 ± 0.7%
Kv1.3 channel
  IC50: 597 ± 114 nM
[1]
  inhibition of hKv1.2-M1 chimeric channel currents: 1.0 ± 0.2%
hKv1.2-V381Y
  inhibition of hKv1.2-V381Y channel currents: 1.6 ± 0.1%
hKv1.6 channel
  inhibition of hKv1.6 channel currents: 11.0 ± 1.2%
hERG channel
  inhibition of hERG channel currents: 13.3 ± 3.3%
hKv1.3 channel
  inhibition of hKv1.3 channel currents: 52.1 ± 3.1%
rKv4.3 channel
  inhibition of Kv4.3 channel currents: 4.9 ± 0.3%
